Values quoted from earlier work as cited in patent publication US20220331342A1, “TREATMENT OF TRAUMATIC ENCEPHALOPATHY BY FIBROBLASTS AND THERAPEUTIC ADJUVANTS” (FIGENE, LLC, priority 2019, published 2022).

Experiments:
[1] = test system: mixed spinal cord (SC) cultures; conditions: excitotoxins
[2] = test system: SOD1 mutant mice; conditions: single therapy

Compound	neuronal survival on treatment with MAPK inhibitors [1]	further results
C[S+]([O-])c1ccc(-c2nc(-c3ccncc3)c(-c3ccc(F)cc3)[nH]2)cc1 (stereo not shown) [SB203580]	increased neuronal survival	
COc1cccc(-c2cc(=O)c3ccccc3o2)c1N [PD98059]	not	
CN(C)c1ccc(O)c2c1C[C@H]1C[C@H]3[C@H](N(C)C)C(O)=C(C(N)=O)C(=O)[C@@]3(O)C(O)=C1C2=O [Minocycline, minocycline]		first-pass metabolism when absorbed from the human gastrointestinal tract: substantial first-pass metabolism
Nc1nc2ccc(OC(F)(F)F)cc2s1 [Riluzole, riluzole]		onset of disease [2]: without affecting
